Test results: US3995061A, “Pharmaceutical composition and method of using the same” (Chugai Seiyaku Kabushiki Kaisha, priority 1974, dated 1976)
Entries after “also recorded” stand apart in the source; their conditions may differ.

Experiments:
Acute toxicity, mouse = details: in vivo
Excerpt: (§1) Acute toxicity of the ascochlorin derivatives was observed by the use of Wister-Imamichi strain male rats weighing 230 ± 30 g and ddY strain male and female mice (5 weeks old) weighing 20 ±3 g which were divided into groups of 10 members each. Japanese native male rabbits weighing 2 kg ± 300 g which were divided into groups of five members each were also used. The test animals were orally or intraperitoneally administered with a different ascochlorin derivative as a suspension in 5% gum arabic aqueous solution, and the toxicity was compared with that of control in which ascochlorin was used.

Lipid in liver and aorta = assay: Hypolipidemic activity: change of lipid level in organs and aorta abdominalis, 30 days, high-fat feed; type: in vivo, Wister strain rats; details: rat, 10.0 mg/kg oral
Experimental: Wister strain rats weighing 150 ± 20 g were divided into groups of 10 members each and bred with high-fat feed, the same as that used in Example 1. The rats were orally administered ascochlorin, 4-O-methylascochlorin or ethyl-α-(p-chlorophenoxy) isobutylate in a predetermined dose every morning for 30 days. Six hours after the last administration, liver and aorta of each rat were taken out and lipid level in the organs of each of the rats were determined. Lipid present in the liver and aorta was extracted with methanol-chloroform (1:1) by allowing it to stand overnight and the extract was assayed as to lipid level.

Acute toxicity, rat = details: in vivo, male
Excerpt: as §1

[1] = Toxicity by continuous administration for 10 days (body weight); type: in vivo, Wister-Imamichi strain male rats; details: rat, 10 mg/head oral once a day
Experimental: Wister-Imamichi strain male rats weighing 230 ± 30 g were divided into four groups of 10 members each, 3 groups of which were orally administered with 4-O-methylascochlorin in a dose of 10 mg/head, 4-O-methylascochlorin in 20 mg/head and ascochlorin in 10 mg/head, respectively, as a suspension in 2% gum arabic aqueous solution once a day for 10 days. The remaining group was administered with 2% gum arabic aqueous solution, the dose and way of administration being identical to those disclosed above. The increase in body weight of the rats of each group was observed every day during the administration. The results are shown in the graph of FIG. 1.

[2] = ascochlorin, background statement; cited from earlier work
blood platelet = assay: Aggregation inhibition activity of blood platelet (ADP-induced, platelet rich plasma of orally dosed rats); type: in vivo, Wister-Imamich strain male rats; details: rat, 20 mg/kg oral, 6 hours; adenosine-5'-diphosphate 10^-5 M in platelet rich plasma
Experimental: In this Example Wister-Imamich strain male rats weighing 230 ± 30 g which had been bred with the use of a commercial chow, CLEA CE-2 were used.
The rats were divided into groups of five members each, and orally administered with a different ascochlorin derivative as a suspension in 2% gum arabic aqueous solution in a dose of 20 mg/kg.body weight. Six hours after the administration, the blood of each rat was sampled from the heart and after the addition of citric acid, the blood sample was centrifuged at 1,500 r.p.m. for 10 minutes to obtain platelet rich plasma. The anti-aggregation effect when the concentration of adenosine-5'-diphosphatein the platelet rich plasma is ultimately 10^^-5 M is shown in Table II.
As positive controls, ascochlorin, ethyl-α-(p-chlorophenoxy) isobutylate and acetyl salicyclic acid were used. The aggregation inhibition ratio was evaluated in percent by comparing the increase of transmission rate caused by the addition of adenosin-5'-diphosphate to platelet rich plasma of the control group (no medication) with that caused on the groups administered with an ascochlorin derivative which is calculated for 100.

Serum Lipid = assay: Hypolipidemic activity: change in level of serum lipid, 30 days, high-fat feed; type: in vivo, Wister strain rats; details: rat
Cholesterol in serum = assay: Serum cholesterol lowering activity in rats on high-fat feed, single oral dose; type: in vivo, Wister-Imamich strain male rats; details: rat, 75 mg/kg oral, 6 hours after administration
Excerpt: The cholesterol lowering activity of the ascochlorin derivatives of this invention was observed by the use of Wister-Imamich strain male rats weighing 230 ± 30 g which had been bred with the use of high-fat feed comprising 1000 g of powdery chow CLEA CE-2 (sold by NIHON CLEA KABUSHIKI KAISHA) admixed with 10 g of cholesterol, 95 g of hydrogenated coconut oil, 2 g of cholic acid, 150 g of milk casein and 671 g of sucrose.
The rats were divided into groups of five members each, and orally administered with a different ascochlorin derivative as a suspension in gum arabic aqueous solution in a dose of 75 mg/kg.body weight. The rats were kept from eating food, and 6 hours after the administration, the blood of each rat was sampled from its heart. The total amount of cholesterol in serum was determined by a modified Zurkowski method (Clinical Chemistry, 10, 451, 1964) with the use of a colorimeter for blood analysis (sold by KYOTO DAIICHI KAGAKU).

[3] = Toxicity by continuous administration for 30 days (body weight, deaths); type: in vivo, Wister strain male rats; details: rat, 50 mg/kg oral once a day
Experimental: Wister strain male rats weighing 150 ± 20 g were divided into groups of 10 members each, and each group was orally administered with 4-O-methylascochlorin as a suspension in 2% gum arabic aqueous solution in a predetermined dose once a day for 30 days, and the increase in body weight thereof was observed each day that the administration continued. As controls, ascochlorin (50 mg/kg/day) and ethyl-α-(p-chlorophenoxy) isobutylate (500 mg/kg/day) were used. The results are shown in the graph in FIG. 2.

[4] = Japanese Patent No. 585,252 and U.S. Pat. No. 3,546,073; cited from earlier work
[5] = especially noticeable when continuously administered; cited from earlier work
[6] = 10.0 mg/kg oral, average ± standard error

## CC(/C=C/[C@@]1(C)[C@H](C)CCC(=O)[C@@H]1C)=C\Cc1c(O)c(Cl)c(C)c(C=O)c1O [ascochlorin, reference compound]
Acute toxicity, mouse; ip, female
  LD50: 68 mg/kg
Acute toxicity, mouse; ip, male
  LD50: 102 mg/kg
Acute toxicity, mouse; po, female
  LD50: > 5000 mg/kg
Acute toxicity, mouse; po, male
  LD50: > 5000 mg/kg
Lipid in liver and aorta
  Cholesterol in Liver, increasing or reducing ratio based on the control: +6.5
  Cholesterol in Tunica intima of aorta abdominalis, increasing or reducing ratio based on the control: -4.0
  Phospholipid in Liver, increasing or reducing ratio based on the control: -1.0
  Triglyceride in Liver, increasing or reducing ratio based on the control: -7.3
Lipid in liver and aorta; average ± standard error
  Cholesterol in Liver: 36.2 ± 3.5 mg/g
  Phospholipid in Liver: 69.5 ± 4.2 mg/g
  Triglyceride in Liver: 20.2 ± 2.5 mg/g
Acute toxicity, rat; ip
  LD50: 258 mg/kg
Acute toxicity, rat; oral
  LD50: > 7000 mg/kg
[1]
  increase in body weight: increased only slightly in body weight
[2]
  hypolipidemic activity: inadequate in its hypolipidemic activity
Blood platelet
  Aggregation Inhibition Ratio: 66.8%
Serum Lipid; 10.0 mg/kg oral
  Serum Cholesterol, increasing or reducing ratio based on the control: -8.8
  Serum Free fatty acid, increasing or reducing ratio based on the control: -4.0
  Serum Phospholipid, increasing or reducing ratio based on the control: -4.5
  Serum Triglyceride, increasing or reducing ratio based on the control: -10.0
  Serum β-Lipoprotein, increasing or reducing ratio based on the control: -5.6
Serum Lipid; [6]
  Serum Cholesterol: 97.4 ± 4.8 mg/dL
  Serum Free fatty acid: 48.3±4.7 μ eq./dl
  Serum Phospholipid: 130.1 ± 8.4 mg/dL
  Serum Triglyceride: 72.0 ± 13.2 mg/dL
  Serum β-Lipoprotein: 720 ± 114 mg/dL
Serum Lipid; oral, groups of Tables IV and V
  lowering of lipids in serum, liver and aorta (such effects): such effects were not observed
Cholesterol in serum
  Cholesterol in serum: 101.3 mg/dL
[3]; 50 mg/kg
  increase in body weight: little or no increase in body weight; also recorded: lost weight
[3]; group of 10
  rats died during the test period: three
[4]
  known activities: anti-viral, anti-tumor, anti-bacterial and sedative activities and, further, cholesterol-lowering activity
[5]
  toxicity: strong in toxicity
